Patent US5461036A, “Spicamycin derivatives and their use as anticancer agents” (priority 1991, dated 1995)
Read-outs that look alike come from different tables or passages of the source.

Assays:
in vivo = test: in vivo; set-up: species or system nude mice (BALB/c nu/nu); conditions: mouse, in vivo; intravenous, continuous 5 days, nude mice; maximum dose at which no animal was dead within 2 weeks; read-out: Maximum tolerated dose
Experimental: (1) Measurement of maximum tolerated dose (MTD) of the spicamycin derivatives in nude mice
The spicamycin derivative was dissolved in dimethylsulfoxide (DMSO) and Cremophor EL® at the same volume as DMSO was added. Physiological saline was added so that the concentration of DMSO and Cremophor EL® was finally adjusted to 1%, respectively, and thus injection liquids of spicamycin derivative in a variety of concentrations were prepared. […] The maximum dose at which no animal was dead was defined as the MTD of the respective derivatives.

[1] = system: human colon cancer (COL-1); type: in vivo, mouse; conditions: for TGIR (tumor growth inhibition rate, maximum) / minTx (relative tumor volume when reduced to the minimum): COL-1 s.c. in nude mice, at MTD; for TGIR (tumor growth inhibition rate, maximum): TGIR=(1-Tx/Cx)×100, maximum during about 3 weeks; for minTx (relative tumor volume when reduced to the minimum): minimum throughout the test period
Experimental: (2) Method for measuring the antitumor effect on human colon cancer (COL-1)
COL-1, a human colon cancer, was transplanted subcutaneously into nude mice. When the tumor had grown to a volume of about 100 mm^3, the nude mice were divided into groups of 5 animals so that the average tumor volumes of respective groups were equalized. The respective spicamycin derivatives were administered to test groups at their MTDs, while physiological saline (solvent) containing 1% DMSO and 1% Cremophor EL® was administered to the control group. […] RV is expressed as RV =Vn/Vo where Vn is the tumor volume on day n and Vo is the initial tumor volume at the time treatment was commenced.

[2] = /minimum effective dose (effective: TGIR≥50)

O=C(CCCCCCCCCCCCl)NCC(=O)N[C@@H]1[C@@H](O)[C@@H](O)[C@@H](Nc2ncnc3[nH]cnc23)O[C@H]1C(O)CO (stereo partly shown) [SPK132, 6-[4'-N-(N'-12-chlorododecanoylglycyl)spicaminyl-amino]purine]
MTD at 336 h (in vivo): 12 mg/kg/day
TGIR (tumor growth inhibition rate, maximum) [1]: 98
minTx (relative tumor volume when reduced to the minimum) [1]: 0.08
Therapeutic index ([1]; mouse, in vivo): 4

CCCCCCC/C=C/C=C/C(=O)NCC(=O)N[C@@H]1[C@@H](O)[C@@H](O)[C@@H](Nc2ncnc3[nH]cnc23)O[C@H]1C(O)CO (stereo partly drawn) [SPK282, 6-[4'-N-(N'-trans,trans-2,4-dodecadienoylglycyl)spicaminyl-amino]purine]
MTD at 336 h (in vivo): 36 mg/kg/day
TGIR (tumor growth inhibition rate, maximum) [1]: 99
minTx (relative tumor volume when reduced to the minimum) [1]: 0.07
Therapeutic index ([1]; mouse, in vivo): 16

CCCCCCCCCCCCCCC(F)C(=O)NCC(=O)NC1C(O)C(O)C(Nc2ncnc3[nH]cnc23)OC1C(O)CO (stereo not shown) [SPK233, 6-[4'-N-(N'-2-fluorohexadecanoylglycyl)spicaminyl-amino]purine]
MTD at 336 h (in vivo): 2.7 mg/kg/day
Therapeutic index [1, 2]: 4
TGIR (tumor growth inhibition rate, maximum) [1]: 96
minTx (relative tumor volume when reduced to the minimum) [1]: 0.13

CC(C)CCCCCCCCCCC(=O)NCC(=O)N[C@@H]1[C@@H](O)[C@@H](O)[C@@H](Nc2ncnc3[nH]cnc23)O[C@H]1C(O)CO (stereo partly shown) [SPK136, 6-[4'-N-(N'-12-methyltridecanoylglycyl)spicaminyl-amino]purine]
MTD at 336 h (in vivo): 2 mg/kg/day
Therapeutic index [1, 2]: 4
TGIR (tumor growth inhibition rate, maximum) [1]: 84

C=CCCCCCCCCCC(=O)NCC(=O)N[C@@H]1[C@@H](O)[C@@H](O)[C@@H](Nc2ncnc3[nH]cnc23)O[C@H]1C(O)CO (stereo partly shown) [SPK44, 6-[4 '-N-(N'-11-dodecenoylglycyl)spicaminyl-amino]purine]
MTD at 336 h (in vivo): 4 mg/kg/day
Therapeutic index [1, 2]: 4
TGIR (tumor growth inhibition rate, maximum) [1]: 94
minTx (relative tumor volume when reduced to the minimum) [1]: 0.16

N#CCCCCCCCCCCCCCCCC(=O)NCC(=O)NC1C(O)C(O)C(Nc2ncnc3[nH]cnc23)OC1C(O)CO (stereo not shown) [SPK177, 6-[4'-N-(N'-16-cyanohexadecanoylglycyl)-spicaminyl-amino]purine]
MTD at 336 h (in vivo): 13.5 mg/kg/day
TGIR (tumor growth inhibition rate, maximum) [1]: 99
Therapeutic index ([1]; mouse, in vivo): 4

CCCCCCCCCCC[C@@H](O)CC(=O)NCC(=O)NC1C(O)C(O)C(Nc2ncnc3[nH]cnc23)OC1C(O)CO (stereo partly drawn) [SPK270, 6-[4'-N-(N'-(R)-3-hydroxytetradecanoylglycyl)spicaminyl-amino]purine]
MTD at 336 h (in vivo): 12 mg/kg/day
TGIR (tumor growth inhibition rate, maximum) [1]: 94
minTx (relative tumor volume when reduced to the minimum) [1]: 0.21
Therapeutic index ([1]; mouse, in vivo): 4

O=C(CCCCCCCCCCOc1ccccc1)NCC(=O)NC1C(O)C(O)C(Nc2ncnc3[nH]cnc23)OC1C(O)CO (stereo not shown) [SPK422, 6-[4'-N-(N'-11-phenoxyundecanoylglycyl)-spicaminyl-amino]purine]
MTD at 336 h (in vivo): 3.4 mg/kg/day
TGIR (tumor growth inhibition rate, maximum) [1]: 95
Therapeutic index ([1]; mouse, in vivo): 4

O=C(CCCCCCCCCCCCCCCF)NCC(=O)NC1C(O)C(O)C(Nc2ncnc3[nH]cnc23)OC1C(O)CO (stereo not shown) [SPK157, 6-[4,-N-(N'-16-fluorohexadecanoylglycyl)spicaminyl-amino]purine]
MTD at 336 h (in vivo): 1.6 mg/kg/day
Therapeutic index [1, 2]: 4
TGIR (tumor growth inhibition rate, maximum) [1]: 98
minTx (relative tumor volume when reduced to the minimum) [1]: 0.11

O=C(CCCCCCCCCCCOc1ccccc1)NCC(=O)NC1C(O)C(O)C(Nc2ncnc3[nH]cnc23)OC1C(O)CO (stereo not shown) [SPK249, 6-[4'-N-(N'-12-phenoxydodecanoylglycyl)-spicaminyl-amino]purine]
MTD at 336 h (in vivo): 3 mg/kg/day
TGIR (tumor growth inhibition rate, maximum) [1]: 88
minTx (relative tumor volume when reduced to the minimum) [1]: 0.26
Therapeutic index ([1]; mouse, in vivo): 4

CCCCCCCCCCC(F)C(=O)NCC(=O)NC1C(O)C(O)C(Nc2ncnc3[nH]cnc23)OC1C(O)CO (stereo not shown) [SPK159, 6-[4'-N-(N'-2-fluorododecanoylglycyl)spicaminyl-amino]purine]
MTD at 336 h (in vivo): 24 mg/kg/day
TGIR (tumor growth inhibition rate, maximum) [1]: 96
Therapeutic index ([1]; mouse, in vivo): 4

CCCCCCCCCCC/C=C/C(=O)NCC(=O)N[C@@H]1[C@@H](O)[C@@H](O)[C@@H](Nc2ncnc3[nH]cnc23)O[C@H]1C(O)CO (stereo partly drawn) [SPK156, 6-[4'-N-(N'-trans-2-tetradecenoylglycyl)spicaminyl-amino]purine]
MTD at 336 h (in vivo): 3 mg/kg/day
TGIR (tumor growth inhibition rate, maximum) [1]: 92
Therapeutic index ([1]; mouse, in vivo): 4

O=C(CCCCCCCCC#Cc1ccoc1)NCC(=O)NC1C(O)C(O)C(Nc2ncnc3[nH]cnc23)OC1C(O)CO (stereo not shown) [SPK266, 6-{4'-N-[N'-11-(3'-furyl)-10-undecynoylglycyl]spicamynyl-amino}purine]
MTD at 336 h (in vivo): 12 mg/kg/day
TGIR (tumor growth inhibition rate, maximum) [1]: 97
minTx (relative tumor volume when reduced to the minimum) [1]: 0.18
Therapeutic index ([1]; mouse, in vivo): 8

O=C(CCCCCCCCCCBr)NCC(=O)N[C@@H]1[C@@H](O)[C@@H](O)[C@@H](Nc2ncnc3[nH]cnc23)O[C@H]1C(O)CO (stereo partly shown) [SPK64, 6-[4'-N-(N'-11-bromoundecanoylglycyl)spicaminyl-amino]purine]
MTD at 336 h (in vivo): 18 mg/kg/day
TGIR (tumor growth inhibition rate, maximum) [1]: 95
Therapeutic index ([1]; mouse, in vivo): 4

CCCCCCCCCCCC(=O)NCC(=O)NC1C(O)C(O)C(Nc2ncnc3[nH]cnc23)OC1C(O)CO (stereo not shown) [SPM8, reference compound]
MTD at 336 h (in vivo): 10.4 mg/kg/day
TGIR (tumor growth inhibition rate, maximum) [1]: 94
minTx (relative tumor volume when reduced to the minimum) [1]: 0.19
Therapeutic index ([1]; mouse, in vivo): 4

CCCCCCCCCCCCCCC(Cl)C(=O)NCC(=O)NC1C(O)C(O)C(Nc2ncnc3[nH]cnc23)OC1C(O)CO (stereo not shown) [SPK135, 6-[4'-N-(N'-2-chlorohexadecanoylglycyl)spicaminylamino]purine]
MTD at 336 h (in vivo): 24 mg/kg/day
TGIR (tumor growth inhibition rate, maximum) [1]: 93
Therapeutic index ([1]; mouse, in vivo): 4

O=C(CCCCCCCCCCCCBr)NCC(=O)N[C@@H]1[C@@H](O)[C@@H](O)[C@@H](Nc2ncnc3[nH]cnc23)O[C@H]1C(O)CO (stereo partly shown) [SPK276, 6-[4'-N-(N'-13-bromotridecanoylglycyl)spicaminyl-amino]purine]
MTD at 336 h (in vivo): 12 mg/kg/day
TGIR (tumor growth inhibition rate, maximum) [1]: 96
minTx (relative tumor volume when reduced to the minimum) [1]: 0.16
Therapeutic index ([1]; mouse, in vivo): 8

CCCCCCCCC/C=C/C=C/C(=O)NCC(=O)NC1C(O)C(O)C(Nc2ncnc3[nH]cnc23)OC1C(O)CO (stereo not drawn) [SPT241, 6-[4 -N-(N'-trans,trans-2,4-tetradecadienylglycyl)-septaminyl-amino]purine]
MTD at 336 h (in vivo): 3 mg/kg/day
TGIR (tumor growth inhibition rate, maximum) [1]: 93
minTx (relative tumor volume when reduced to the minimum) [1]: 0.24
Therapeutic index ([1]; mouse, in vivo): 8

CCCCCC/C=C\CCCCCCCC(=O)NCC(=O)N[C@@H]1[C@@H](O)[C@@H](O)[C@@H](Nc2ncnc3[nH]cnc23)O[C@H]1C(O)CO (stereo partly drawn) [SPK148, 6-[4,-N-(N'-cis-9-hexadecenoylglycyl)spicaminyl-amino]purine]
MTD at 336 h (in vivo): 3.4 mg/kg/day
Therapeutic index [1, 2]: 4
TGIR (tumor growth inhibition rate, maximum) [1]: 94
minTx (relative tumor volume when reduced to the minimum) [1]: 0.21

CCCCCCCCCCCCCC[C@H](O)C(=O)NCC(=O)NC1C(O)C(O)C(Nc2ncnc3[nH]cnc23)OC1C(O)CO (stereo partly drawn) [SPK271, 6-[4'-N-(N'-(S)-2-hydroxyhexadecanoylglycyl)spicaminyl-amino]purine]
MTD at 336 h (in vivo): 2 mg/kg/day
Therapeutic index [1, 2]: 8
TGIR (tumor growth inhibition rate, maximum) [1]: 99
minTx (relative tumor volume when reduced to the minimum) [1]: 0.09
